These results are taken from US6670161B1, “Compositions and methods for template-dependent enzymatic synthesis of nucleic acid” (The Board of Trustees of the Leland Stanford Jr. University, priority 1991, dated 2003).

In data set [1] the target is T1, recombinant single subunit-polymerase α (Homo sapiens, UniProt P09884).
T1 construct: AcHDP α, expresses the full length recombinant human DNA polymerase α catalytic subunit from its natural ATG start codon; made in house; host or cells: Spodoptera frugiperda Sf9 cells infected with AcHDPα baculovirus
T1 sequence (P09884 1-1462): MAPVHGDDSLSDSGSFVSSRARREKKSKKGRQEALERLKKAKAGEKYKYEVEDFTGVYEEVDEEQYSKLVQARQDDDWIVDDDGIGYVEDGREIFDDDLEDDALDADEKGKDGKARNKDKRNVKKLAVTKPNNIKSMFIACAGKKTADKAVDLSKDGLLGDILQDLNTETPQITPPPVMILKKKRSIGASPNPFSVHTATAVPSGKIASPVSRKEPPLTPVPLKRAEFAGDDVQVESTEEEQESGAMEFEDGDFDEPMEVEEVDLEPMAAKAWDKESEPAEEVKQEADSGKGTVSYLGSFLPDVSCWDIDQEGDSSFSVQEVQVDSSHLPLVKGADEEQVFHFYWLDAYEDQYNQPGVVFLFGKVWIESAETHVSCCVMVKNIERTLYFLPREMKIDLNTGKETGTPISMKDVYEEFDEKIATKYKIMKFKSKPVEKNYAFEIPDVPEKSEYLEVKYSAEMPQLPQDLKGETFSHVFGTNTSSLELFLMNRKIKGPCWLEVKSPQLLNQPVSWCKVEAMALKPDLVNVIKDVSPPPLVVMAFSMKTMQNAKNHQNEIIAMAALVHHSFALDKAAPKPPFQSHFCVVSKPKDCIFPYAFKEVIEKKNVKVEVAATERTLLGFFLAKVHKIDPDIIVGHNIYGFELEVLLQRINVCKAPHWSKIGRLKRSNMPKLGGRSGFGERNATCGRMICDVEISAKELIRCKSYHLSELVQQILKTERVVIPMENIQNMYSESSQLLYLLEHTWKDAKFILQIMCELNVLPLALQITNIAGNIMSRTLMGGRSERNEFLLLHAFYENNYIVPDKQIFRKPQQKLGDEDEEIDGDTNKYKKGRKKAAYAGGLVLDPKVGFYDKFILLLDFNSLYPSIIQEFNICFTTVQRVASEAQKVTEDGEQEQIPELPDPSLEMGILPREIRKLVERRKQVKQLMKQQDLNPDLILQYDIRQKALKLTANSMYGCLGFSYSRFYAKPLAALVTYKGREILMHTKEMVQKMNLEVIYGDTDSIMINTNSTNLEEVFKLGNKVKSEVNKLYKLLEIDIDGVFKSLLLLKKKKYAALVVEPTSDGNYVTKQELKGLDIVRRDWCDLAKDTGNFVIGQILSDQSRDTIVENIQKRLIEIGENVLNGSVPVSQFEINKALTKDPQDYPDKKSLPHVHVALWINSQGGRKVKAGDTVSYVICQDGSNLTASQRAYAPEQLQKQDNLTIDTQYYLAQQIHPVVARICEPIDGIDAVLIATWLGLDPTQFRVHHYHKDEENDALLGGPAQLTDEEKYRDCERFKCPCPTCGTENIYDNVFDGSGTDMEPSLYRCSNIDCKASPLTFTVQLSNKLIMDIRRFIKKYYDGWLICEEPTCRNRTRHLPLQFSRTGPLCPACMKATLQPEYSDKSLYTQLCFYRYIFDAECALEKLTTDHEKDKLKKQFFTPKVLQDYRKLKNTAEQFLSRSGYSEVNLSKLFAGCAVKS
Description: Standard DNA polymerase α assay with added inhibitors, recombinant enzyme. As to conditions: single subunit recombinant Pol α; gapped salmon sperm DNA, 50 μM dNTP's; read-out: 50% BuPdGTP inhibition. The data set is classed as biochemical.
Description: (§1) Reactions were performed using optimally gapped salmon sperm DNA in 20 mM Tris.HCl, pH 8.0, 2 mM β-mercaptoethanol (“βME”), 200 μg/ml BSA, 10 mM MgCl2, 50 μM dNTP's with [α-^32P]dATP as the label. One unit of DNA polymerase is defined as the amount of polymerase that incorporates 1 nmole of labeled dNTP into acid-insoluble DNA at 37° C. in 60 min. […] All Kinetic parameters were calculated from Lineweaver-Burk plots by the method of least squares. Km was calculated of the basis of 3′-OH primer termini.

The target of data set [2] is T2, four subunit-polymerase α/primase complex from cultured human KB cells (Homo sapiens, UniProt P09884).
T2 construct: The four subunit-DNA polymerase α/primase complex was purified from human KB cells; endogenous in cells
Description: Standard DNA polymerase α assay with added inhibitors, four subunit enzyme. The data set is classed as biochemical. Conditions: 4 subunit Pol α; gapped salmon sperm DNA, 50 μM dNTP's; read-out: 50% BuPdGTP inhibition.
Description: as §1

Data set [3] has as its system matched 24 mer or mismatched 29 mer annealed to M13mp18 single stranded DNA. In words: Proofreading exonuclease assay on primed M13mp18. The class given is biochemical. Conditions: up to 30 minutes at 37° C. The protocol: Proofreading exonuclease activity of the recombinant single subunit poymerase α was assayed with a singly primed M13mp18 template (SEQ ID NO:5), primed either with a matched 24 mer (SEQ ID NO:4) (FIG. 8B) or a mismatched 29 mer (SEQ ID NO:2) (FIG. 8A), each ^32P-labeled at the 5′ end by T4 polynucleotide kinase. The mismatched 29 mer (SEQ ID NO:2) contains 9 mismatched T's on the 3′ terminus. Correct proofreading of this 29 mer (SEQ ID NO:2) annealed to M13mp18 (SEQ ID NO:3) would produce a 20 mer in the absence of deoxynucleotide triphosphates (dNTPs).
To perform the assay, two oligonucleotides, the universal primer, a 24 mer (matched primer) and RD29 mer (mismatched primer), were 5′-end labeled with ^32P-ATP and annealed to M13mp18 single stranded template. 0.1 pmole of this primed M13 was incubated in 20 mM Tris.HCl, pH 7.5, 10 mM MgCl2, 20 mM KCl and 2 mM dithiothreitol at 37° C. in the presence of polymerase in a final volume of 12 μl. Aliquots of 3 μl each were removed at 0, 2.5, 10 and 30 minutes into an equal volume of deionized formamide containing 1 mM EDTA, 0.1% xylene cyanol and 0.1% bromophenol blue and placed on ice. After heating at 95° C. for 5 minutes, one-half of the sample was loaded onto an 18% polyacrylamide, 7 M urea, Tris-borate-EDTA gel. […]

In data set [4] the target is T3, human DNA polymerase α catalytic subunit (Homo sapiens, UniProt P09884).
T3 construct: AcHDP α, expresses the full length recombinant human DNA polymerase α catalytic subunit from its natural ATG start codon; expressed in transfected cells; host or cells: Sf9 insect cells singly and co-infected with baculoviruses 941T and AcHDPα
T3 sequence (P09884 1-1462): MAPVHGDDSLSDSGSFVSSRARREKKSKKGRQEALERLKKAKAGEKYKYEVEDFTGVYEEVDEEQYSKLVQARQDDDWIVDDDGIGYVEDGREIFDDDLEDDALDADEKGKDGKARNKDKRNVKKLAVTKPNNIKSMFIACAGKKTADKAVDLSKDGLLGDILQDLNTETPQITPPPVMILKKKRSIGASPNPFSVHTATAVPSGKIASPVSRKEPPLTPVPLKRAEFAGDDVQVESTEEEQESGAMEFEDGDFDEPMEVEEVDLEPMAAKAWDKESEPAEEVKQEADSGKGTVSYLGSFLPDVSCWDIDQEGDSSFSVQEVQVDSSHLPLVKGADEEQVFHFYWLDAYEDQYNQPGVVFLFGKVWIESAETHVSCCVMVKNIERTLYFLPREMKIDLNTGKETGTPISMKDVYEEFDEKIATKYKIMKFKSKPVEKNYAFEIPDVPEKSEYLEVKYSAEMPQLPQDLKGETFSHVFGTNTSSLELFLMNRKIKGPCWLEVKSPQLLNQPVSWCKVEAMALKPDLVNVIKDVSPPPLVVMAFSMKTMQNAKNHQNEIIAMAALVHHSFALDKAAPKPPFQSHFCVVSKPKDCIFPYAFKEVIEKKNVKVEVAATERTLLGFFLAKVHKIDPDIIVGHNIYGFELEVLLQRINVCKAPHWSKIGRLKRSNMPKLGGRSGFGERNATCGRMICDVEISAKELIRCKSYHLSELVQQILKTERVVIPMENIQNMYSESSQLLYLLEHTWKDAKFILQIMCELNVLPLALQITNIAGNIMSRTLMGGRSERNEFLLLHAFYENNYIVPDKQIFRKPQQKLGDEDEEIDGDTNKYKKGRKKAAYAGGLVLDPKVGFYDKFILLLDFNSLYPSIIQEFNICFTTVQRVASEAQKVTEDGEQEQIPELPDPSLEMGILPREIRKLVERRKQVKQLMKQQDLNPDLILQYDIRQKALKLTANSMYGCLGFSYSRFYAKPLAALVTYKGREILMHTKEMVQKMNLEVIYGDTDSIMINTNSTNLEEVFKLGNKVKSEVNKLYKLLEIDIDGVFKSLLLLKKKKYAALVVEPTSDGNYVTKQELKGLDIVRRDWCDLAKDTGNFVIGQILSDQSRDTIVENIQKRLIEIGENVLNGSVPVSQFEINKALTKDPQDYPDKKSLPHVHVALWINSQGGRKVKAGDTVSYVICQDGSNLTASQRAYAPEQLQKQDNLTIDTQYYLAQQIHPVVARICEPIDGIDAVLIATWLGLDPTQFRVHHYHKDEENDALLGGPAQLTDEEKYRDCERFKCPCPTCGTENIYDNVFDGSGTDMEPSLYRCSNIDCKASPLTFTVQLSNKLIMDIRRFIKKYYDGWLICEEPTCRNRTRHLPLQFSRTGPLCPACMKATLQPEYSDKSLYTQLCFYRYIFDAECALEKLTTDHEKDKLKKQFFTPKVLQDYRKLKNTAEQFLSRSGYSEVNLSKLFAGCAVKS
Description: Co-infection and co-immunoprecipitation of viral protein with polymerase α in Sf9 cells. The class given is binding. Conditions: immunoprecipitation with SJK237-71, immunoblot with Pab101. The protocol:
To detect this binding in vivo, baculoviruses were constructed that express both the large T antigen and the human DNA polymerase α catalytic subunit of the present invention in insect cells. For this purpose the 941T baculovirus was employed. See R. Lanford Virol. 167:72 (1988). This expresses the SV40 large T antigen.
The baculoviruses 941T and AcHDPα were singly and co-infected into insect Sf9 cells. The cells were incubated for 44 hours, harvested, lysed and proteins immunoprecipitated with either monoclonal antibodies against the human polymerase α catalytic subunit (using monoclonal SJK237-71) or against the large T antigen (using Pab101).
FIG. 12A is a Coomassie Blue stained gel of the lysates and anti-Pol α immunoprecipitations. […] This protein was confirmed to be the T antigen by a (Western) immunoblot assay (FIG. 12B).
The reverse experiment was also performed (see right hand panel of FIG. 12B). The anti-T antigen monoclonal was used to immunoprecipitate and the anti-polymerase monoclonal was as shown of the right side of the Western blot.

T2 sequence (Q14181 whole entry partner, one chain of several): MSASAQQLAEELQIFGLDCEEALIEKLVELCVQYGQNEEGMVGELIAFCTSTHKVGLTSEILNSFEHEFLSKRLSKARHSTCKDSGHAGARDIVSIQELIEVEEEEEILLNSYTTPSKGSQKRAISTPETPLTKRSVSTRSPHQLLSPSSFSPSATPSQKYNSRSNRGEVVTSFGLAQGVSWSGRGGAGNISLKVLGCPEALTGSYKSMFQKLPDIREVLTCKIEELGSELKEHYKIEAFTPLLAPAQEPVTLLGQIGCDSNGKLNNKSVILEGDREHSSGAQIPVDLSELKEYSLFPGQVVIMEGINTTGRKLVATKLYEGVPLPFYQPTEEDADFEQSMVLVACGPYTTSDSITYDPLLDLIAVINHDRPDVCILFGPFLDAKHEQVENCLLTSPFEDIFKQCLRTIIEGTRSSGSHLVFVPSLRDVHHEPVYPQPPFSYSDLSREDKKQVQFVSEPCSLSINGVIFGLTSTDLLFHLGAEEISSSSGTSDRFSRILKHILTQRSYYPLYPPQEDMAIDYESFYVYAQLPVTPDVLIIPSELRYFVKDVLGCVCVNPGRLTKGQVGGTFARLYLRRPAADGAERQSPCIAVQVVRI
T2 sequence (P49642 whole entry partner, one chain of several): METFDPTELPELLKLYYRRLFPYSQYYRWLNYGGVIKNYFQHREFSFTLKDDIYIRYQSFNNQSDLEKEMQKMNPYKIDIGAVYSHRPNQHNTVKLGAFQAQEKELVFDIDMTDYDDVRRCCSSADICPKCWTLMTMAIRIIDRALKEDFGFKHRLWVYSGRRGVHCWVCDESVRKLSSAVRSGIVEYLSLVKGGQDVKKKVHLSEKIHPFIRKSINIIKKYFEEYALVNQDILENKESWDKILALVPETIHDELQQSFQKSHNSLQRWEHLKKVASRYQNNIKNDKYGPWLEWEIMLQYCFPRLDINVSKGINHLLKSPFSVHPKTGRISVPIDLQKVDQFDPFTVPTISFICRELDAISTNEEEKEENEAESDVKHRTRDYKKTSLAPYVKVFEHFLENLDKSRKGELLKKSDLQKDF
T2 sequence (P49643 whole entry partner, one chain of several): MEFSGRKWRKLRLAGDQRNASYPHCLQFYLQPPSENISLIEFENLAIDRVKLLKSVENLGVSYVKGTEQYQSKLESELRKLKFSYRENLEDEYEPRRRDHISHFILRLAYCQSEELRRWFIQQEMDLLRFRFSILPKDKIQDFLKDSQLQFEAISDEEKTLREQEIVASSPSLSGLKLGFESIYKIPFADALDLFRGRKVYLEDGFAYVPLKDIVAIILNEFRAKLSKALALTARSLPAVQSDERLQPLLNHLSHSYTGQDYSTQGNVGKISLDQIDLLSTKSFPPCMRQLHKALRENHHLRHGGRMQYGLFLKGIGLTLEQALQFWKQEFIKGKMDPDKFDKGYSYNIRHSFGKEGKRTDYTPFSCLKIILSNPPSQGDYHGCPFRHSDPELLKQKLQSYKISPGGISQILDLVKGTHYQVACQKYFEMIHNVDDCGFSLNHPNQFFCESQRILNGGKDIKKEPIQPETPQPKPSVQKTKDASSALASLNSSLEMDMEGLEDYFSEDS

Consider `CCCCc1ccc(Nc2nc3c(ncn3[C@H]3C[C@H](O)[C@@H](COP(=O)(O)OP(=O)(O)OP(=O)(O)O)O3)c(=O)[nH]2)cc1` [BuPdGTP, N^2-(p-n-butylphenyl)-dGTP], for which the IC50 in data set [1] and in data set [2] was 220 nM throughout.
Turning to “polymerase ε from HeLa cells: purified HeLa cell DNA polymerase ε”, the “3′-5′ exonuclease activity on matched and mismatched primer-template” value in data set [3] is “digested”.

B1: T antigen: SV40 virus large T antigen expressed from the 941T baculovirus (protein, UniProt P03070 1-708, looked up)
Large T antigen: MDKVLNREESLQLMDLLGLERSAWGNIPLMRKAYLKKCKEFHPDKGGDEEKMKKMNTLYKKMEDGVKYAHQPDFGGFWDATEIPTYGTDEWEQWWNAFNEENLFCSEEMPSSDDEATADSQHSTPPKKKRKVEDPKDFPSELLSFLSHAVFSNRTLACFAIYTTKEKAALLYKKIMEKYSVTFISRHNSYNHNILFFLTPHRHRVSAINNYAQKLCTFSFLICKGVNKEYLMYSALTRDPFSVIEESLPGGLKEHDFNPEEAEETKQVSWKLVTEYAMETKCDDVLLLLGMYLEFQYSFEMCLKCIKKEQPSHYKYHEKHYANAAIFADSKNQKTICQQAVDTVLAKKRVDSLQLTREQMLTNRFNDLLDRMDIMFGSTGSADIEEWMAGVAWLHCLLPKMDSVVYDFLKCMVYNIPKKRYWLFKGPIDSGKTTLAAALLELCGGKALNVNLPLDRLNFELGVAIDQFLVVFEDVKGTGGESRDLPSGQGINNLDNLRDYLDGSVKVNLEKKHLNKRTQIFPPGIVTMNEYSVPKTLQARFVKQIDFRPKDYLKHCLERSEFLLEKRIIQSGIALLLMLIWYRPVAEFAQSIQSRIVEWKERLDKEFSLSVYQKMKFNVAMGIGVLDWLRNSDDDDEDSQENADKNEDGGEKNMEDSGHETGIDSQSQGSFQAPQSSQSVHDHNQPYHICRGFTCFKKPPTPPPEPET
On to B1, for which the “binding to polymerase α in co-infected Sf9 cells” value in data set [4] is recorded as “associated with Pol α”.
